This note sets out measurements from ChEMBL document CHEMBL1275412, “Detection of new arr-4 and arr-5 gene cassettes in clinical Pseudomonas aeruginosa and Klebsiella pneumoniae strains from Brazil” (2008).

Values after ≈ are worked out from the molar mass of the structure shown.

Test [1] relates to Klebsiella pneumoniae. The experiment in a line: Antibacterial activity against Klebsiella pneumoniae K830 with arr-5 gene by Etest method. Format: functional.
Test [2] concerns Klebsiella pneumoniae. Kind of test: Antibacterial activity against Klebsiella pneumoniae K688 with arr-5 gene by Etest method. Format: functional.
In test [3] the test system is Klebsiella pneumoniae. The experiment in a line: Antibacterial activity against Klebsiella pneumoniae ATCC 10031 control strain by Etest method.
Test [4] relates to Escherichia coli. Kind of test: Antibacterial activity against Escherichia coli […] harboring arr-4 gene after 20 hrs by Etest method. Format: functional.
Test [5] has as its system Klebsiella pneumoniae. Kind of test: Antibacterial activity against Klebsiella pneumoniae K224 with arr-5 gene by Etest method. It is filed as functional.
The next test deals with Pseudomonas aeruginosa. Kind of test: Antibacterial activity against Pseudomonas aeruginosa PS1111 with arr-4 gene by Etest method. Format: functional.
Test [6] deals with Klebsiella pneumoniae. Kind of test: Antibacterial activity against Klebsiella pneumoniae K56 with arr-5 gene by Etest method. It is filed as functional.
Test [7] has as its system Escherichia coli. The experiment in a line: Antibacterial activity against Escherichia coli […] harboring arr-5 gene after 20 hrs by Etest method. It is filed as functional.

Broadly, the MIC is the lowest concentration that inhibits growth of the organism. Higher therefore signals a need for much substance.

In the case of `CO[C@H]1/C=C/O[C@@]2(C)Oc3c(C)c(O)c4c(O)c(c(/C=N/N5CCN(C)CC5)c(O)c4c3C2=O)NC(=O)/C(C)=C\C=C\[C@H](C)[C@H](O)[C@@H](C)[C@@H](O)[C@@H](C)[C@H](OC(C)=O)[C@@H]1C` [RIFAMPIN], the MIC against Klebsiella pneumoniae [1] was above 32 µg/mL; in the test with Klebsiella pneumoniae [2], 8 µg/mL (≈ 9.72 µM); in the test with Klebsiella pneumoniae [3], 6 µg/mL (≈ 7.29 µM); in the test with Escherichia coli [4], above 256 µg/mL; against Klebsiella pneumoniae [5], 8 µg/mL (≈ 9.72 µM); in the test with Pseudomonas aeruginosa, above 32 µg/mL. Also, the minimum inhibitory concentration (MIC) against Klebsiella pneumoniae [6] was 8 µg/mL (≈ 9.72 µM); against Escherichia coli [7] it was above 256 µg/mL.
